The test system of data set [1] is Candida parapsilosis (ATCC 90018). Description: microbroth dilution assay of human pathogenic yeasts (NCCLS M27A, Alamar Blue). Conditions: 24 to 48 hours. It counts as cell-based. The procedure:
(§1) Microbroth dilution assays of human pathogenic yeasts were performed as described in the NCCLS M27A (NCCLS, 1997) with the addition of Alamar Blue (Trek Diagnostics Systems, Inc., Westlake, Ohio) as a colorimetric indicator of viability (Espinel-Ingroff et al., 1999, J. Clin. Microbiol. 37: 591-595). All isolates were obtained from the ATCC. The assays were performed in sterile 96 well plates. The total volume per well was 100 μl. Two wells were inoculated for a given concentration. The MIC was defined as that concentration of compound resulting in no visible growth of the test organism after 24 to 48 hours of incubation with the exception of Cryptococcus neoformans which was read at 72 hours. Flucytosine was included as a control antifungal compound.
A general note: Broth dilution looks for growth in wells or tubes with falling amounts of substance.

In data set [2] the test system is Cryptococcus neoformans (ATCC 32045). The description is as above. It counts as cell-based. Conditions: read at 72 hours. The procedure: as §1
For data set [3], the system named is Candida albicans (ATCC 90028). The description is as above. As to conditions: 24 to 48 hours. It counts as cell-based. On the procedure:
as §1

Data set [4] has as its system Candida tropicalis (ATCC 750). The description is as above. As to conditions: 24 to 48 hours. It counts as cell-based. On the procedure: as §1
The test system of data set [5] is Candida parapsilosis (ATCC 22019). The description is as above. As to conditions: 24 to 48 hours. It counts as cell-based. The procedure:
as §1

The subject of data set [6] is Candida albicans (ATCC 24433). The data set is described as above. It counts as cell-based. Conditions: 24 to 48 hours. On the procedure: as §1
The subject of data set [7] is Saccharomyces cerevisiae (ATCC 9763). The description is as above. As to conditions: 24 to 48 hours. It counts as cell-based. The procedure: as §1
Data set [8] deals with Candida krusei (ATCC 6258). The description is as above. It counts as cell-based. Conditions: 24 to 48 hours. On the procedure: as §1
For data set [9], the system named is human cancer cell line BT20 (breast epithelial cancer). Description: CellTiter 96 cell proliferation assay, BT20. It counts as cell-based. Conditions: BT-20, 50% viability, 96 hours incubation.
Description: (§2) The BT20 cells were grown in the medium recommended by ATCC and were seeded into 96 well clear flat bottom plates at 3000 cells per well in 100 μl. The primary mammary cells were cultured as recommended by the manufacturer in mammary epithelial cell growth media (MEGM®) and were seeded at 3200 cells per well in 100 μl.
(§3) Each plate also contained some wells with cells plus medium only and some wells with medium only as controls. After addition of the compounds, the plates were incubated at 37° C. for 48 hours or 96 hours for the HMEC and BT20 cell lines, respectively.
(§4) The proliferation assay was performed using the manufacturer's protocols; a 20:1 solution of MTS and PMS was mixed and 10 to 40 μl was added to each well depending on the total volume in the wells. The plates were incubated at 37° C. for one to four hours, and the OD490 was determined. The OD reading of all wells was corrected for background by subtracting the reading of wells containing medium only. The wells containing cells only were used as a control for 100% viability.
A further data set can be described thus: in vitro. Conditions: human, primary mammary epithelial cells (HMEC).
For data set [10], the system named is Plasmodium falciparum strain CSC-1 (Honduras). Kind of data set: antimalarial assay against Plasmodium falciparum (3H-phenylalanine uptake). It counts as cell-based. Conditions: read-out: IC50 against Plasmodium falciparum.
Description: All cultures were maintained in a microaerophilic environment containing 1% oxygen/5% CO2 with the balance being nitrogen. […] Control cultures contained the same quantity of DMSO or water as that used in the experimental trials. Data were reported as IC50 values.
Parasite cultures, adjusted to 0.1-0.5% parasitemia by addition of freshly washed human erythrocytes, were pipetted into 96 well culture plates by adding 10 μl of a 50% cell suspension to each well to give a final volume of 5 μl of packed erythrocytes per well. The test compounds in RPMI 1640 were added at 95 μl per well to four wells per each concentration of test compound. Quadruplicate control wells were treated similarly with DMSO or water added without the test compounds present. The cultures were gassed and exposed to radiolabeled ^3[H]-phenylalanine (1 microcurie per well) for the final 24 hour of treatment. Cultures were monitored for bacterial contamination and for parasite viability by Giemsa staining of thin films. Ultimately, the cells were harvested onto glass-fiber filters, followed by liquid scintillation counting. The IC50 for each compound was determined by linear regression analysis using 50% of the control counts as the regression point. The experiment was repeated three times, the data averaged, and the standard deviation of the mean determined.

Values after ≈ are worked out from the molar mass of the structure shown.

Description for in vitro: as §2, §3, §4

With `Nc1[nH]c(=O)ncc1F` [Flucytosine], the MIC in data set [1] is listed as 0.12 μml^−1; in [2], 8 μml^−1; in data set [3] it was 0.5 μml^−1; in [4] it was “<=0.06 μml^−1”; in data set [5] it was 0.5 μml^−1; in [6], 1.0 μml^−1. The figures for the MIC result in [7] and in [8] were “<=0.06 μml^−1” and 16 μml^−1, respectively.

As to `CC(=O)O[C@H]1C(=O)[C@@]2(C)[C@H]([C@H](OC(=O)c3ccccc3)[C@]3(O)C[C@H](OC(=O)[C@H](O)[C@@H](NC(=O)c4ccccc4)c4ccccc4)C(C)=C1C3(C)C)[C@]1(OC(C)=O)CO[C@@H]1C[C@@H]2O` [taxol], it took 9 ng/mL (≈ 0.0105 µM) to reach half-maximal inhibition in data set [9] (IC50). Also, the 50% inhibitory concentration (IC50) (usually the concentration at which inhibition is half-maximal) at 48 h in “in vitro” was 25000 to 30000 ng/mL (≈ 29.3 to 35.1 µM).

For `CCN(CC)CCCC(C)Nc1ccnc2cc(Cl)ccc12` (centres unmarked) [chloroquine], the 50% inhibitory concentration (IC50) in data set [10] turned out to be 7 ng/mL (≈ 0.0219 µM).

The values are drawn from patent US7387888B2, “Coronamycins” (priority 2004, dated 2008).
